Entries after “also recorded” stand apart in the source; their conditions may differ. Counter-ions that a name gives are not always drawn. Like-named read-outs stand apart in the source and are kept apart here.
How the values were obtained:
[1] = system: 3H-glutamate release from rat brain synaptosomes; experiment: Inhibition of K+-evoked 3H-glutamate release from synaptosomes (rapid superfusion); format: cell-based
Method: To study the release of presynaptic ^3 H-glutamate, synaptosomes from young rats were used. CD Male rats of 4 to 6 weeks (50-75 g) were used for the preparation of synaptosomes. Rats were killed by decapitation with guillotine and the skull bone was opened in the center with the pointed blade of dissection scissors. The bone is then peeled away with a bone cutter and the brain is pried with a micro spatula. The cerebellum is removed and the rest of the brain is placed in 35 ml of 0.32M Sucrose solution and homogenized in a Thomas glass teflon homogenizer C at the maximum power setting (about 450 rpm) with 16 strokes. The pestle is rinsed with 5 ml of sucrose solution and added to the homogenate. The homogenate is centrifuged for 10 min at 3500 rpm (1500 g) in a SS-34 rotor in Sorvall RC-5B. The resulting pellet (P1) is discarded and the supernatant (S1) is recentrifuged for 20 min at 8700 rpm (8500 g). The supernatant (S2) is discarded and the pellet (P2) is resuspended in 5 ml of 0.32M sucrose and hand homogenized with 4 strokes (Thomas C) and the volume was made up to 8 ml. This homogenate was layered on 20 ml of 0.8M sucrose solution in two centrifuge tubes and spun for 25 minutes at 8700 rpm (8500 g). At the end of this spin, most of the myelin stays at the interphase of 0.32M and 0.8M sucrose and mitochondria pellet as a brown pellet. The synaptosomes are dispersed in the 0.8M sucrose. Using a 10 ml pipette, the 0.8M sucrose layer is collected (without disturbing the top myelin layer or the pellet) and diluted slowly with an equal volume of chilled basal buffer, while stirring gently with a Pasteur pipette. This diluted solution is centrifuged for 10 min at 10,000 rpm (12,000 g) and the pellet is resuspended in 1.5 ml of basal buffer and hand-homogenized in a Wheaton glass-glass 7 ml homogenizer with 8 strokes.
The synaptosomal homogenate is diluted 1 ml to 10 ml with basal buffer. This dilution gives a protein concentration of 500 to 600 μg/ml. One hundred μl of this diluted prep with 50-60 μg of protein is used for each superfusion event. […] The diluted synaptosomal solution was kept on ice until the end of the experiment.
^3 H-glutamate (purchased from NEN) is stored in the refrigerator. Pipette 6 μl ([…]; 40 to 55 Ci/mmol) into a disposable test tube. Add 100 μl of diluted prep and mix gently on vortex and incubate at 30° C. for 10 min. ^3 H-glutamate is taken up by sodium-coupledglutamate transporter present in synaptosomal membranes. After 10 min, dilute the incubation mixture with 690 μl of basal buffer. This solution is then transferred in Tygon tubing that is connected to the synaptosome loading chamber. Using a syringe filler with air, the solution is forced through the Millipore SC--GF/F--Millipore SC filter sandwich. These filters retain the synaptosomes and the solution flows through.
An important component of the superfusion setup is the custom made stainless steel "General Valve" three-valve solenoid operated superfusion chamber with an outlet for the effluent. The three inlets are connected to stainless steel buffer reservoirs that contain (1) wash buffer, (2) control buffer and (3) experimental buffer which are kept under 40 psi of nitrogen gas through teflon tubing connections. The superfusion is controlled through a menu-driven program on an Apple IIe computer. See Turner, J. T. et al., Anal. Biochem. 178:8-16 (1989), and U.S. Pat. No. 4,891,185, the disclosures of which are fully incorporated by reference herein.
The superfusion chamber has a teflon bushing and a stainless steel washer fixed with the flat surface facing the filters. A GF/B filter disc is placed first in the chamber to eliminate the switching related artifacts. The synaptosome loaded sandwich is then placed facing the synaptosomes into the flow followed by RA filter, stainless steel screen and a washer with the flat side facing the screen.

[2] = system: potassium-stimulated 45Ca uptake of synaptosomes; experiment: Potassium-stimulated 45Ca uptake into synaptosomes; format: cell-based, rat
Method: Several compounds were also tested to determine whether the Ca^2+ dependent and independent components of glutamate release are related to the blockage of ^45 Ca uptake. Calcium uptake is one step in the cascade of events which occur in neuronal cell death from ischemia. See Bassaclough and Leach, Current Patents Ltd., 2-27. The Ca-flux protocol is as follows. Rat brain synaptosomes were prepared according to Hajos, Brain Res. 93:485 (1975). Synaptosomes were suspended in low potassium "LK" buffer (containing 3 mM KCl) at 2 mg/ml. […] After 5 seconds, the ^45 Ca flux was stopped with 0.9 ml quench solution (LK+10 mM EGTA). The solution was filtered under vacuum and the filters washed with 15 ml of quench buffer. The effect of drug is expressed as % inhibition (or block) of control potassium-stimulated ^45 Ca influx. This method is an adaptation of the method disclosed by Nachsen and Blaustein, J. Physiol. 361:251-268 (1985).

[3] = system: sodium channels in N1E-115 neuroblastoma cells; experiment: Whole cell sodium currents in voltage clamped N1E-115 neuroblastoma cells; format: cell-based
Source text: Whole cell sodium currents were elicited in voltage clamped N1E-115 neuroblastoma cells, using the stimulus protocol shown on the top of FIG. 7.

[4] = system: ω-conotoxin-sensitive N-type calcium channels; experiment: Electrophysiology on N-type calcium channels of single dorsal root ganglion cells; format: cell-based, bullfrog
Method: Single bullfrog dorsal root ganglion cells, which express ω-conotoxin-sensitive N-type calcium channels, were treated with 5 uM of N,N'-di(acenaphthyl) guanidine. The solution also contained (in mM) CsCl, 90; creatine phosphate, 5; MgATP, 5; tris GTP, 0.3; EGTA, 10; HEPES, 10; pH 7.2. […] Calcium channel rundown during the recording period may account for the lack of complete reversal of inhibition. This further supports the hypothesis that certain substituted guanidines inhibit neurotransmitter release by […] presynaptic calcium channels.

[5] = system: hippocampal slices (Schaffer collateral synaptic potentials); experiment: Hippocampal slice electrophysiology of excitatory synaptic transmission (field EPSP, population spikes); parameters: species or system Sprague-Dawley rats; conditions: for reversibility of effect: following washout
Method: Transverse sections of hippocampus were obtained from 4-6 week old Sprague-Dawley rats and maintained under standard conditions. […] Extracellular excitatory post synaptic potentials (EPSP's) were recorded by placing a saline-filled glass microelectrode in either the stratum radiatum or stratum lacunosum. Population spikes were recorded by placing an electrode in the stratum pyramidole.

sigma receptor = experiment: Sigma receptor binding against 3H-DTG
[6] = system: Ca2+-dependent glutamate release stimulated with the sodium channel activator veratridine; experiment: Glutamate release of synaptosomes depolarized with veratridine; format: cell-based; conditions: various concentrations
[7] = Rattus norvegicus, read-out: Inhibition of Glutamate Release (Persistent Component), % Inhibition @ 10 uM
[8] = Rattus norvegicus, read-out: Inhibition of Glutamate Release (Persistent Component), IC50
[9] = Rattus norvegicus, read-out: Inhibition of 45Ca Uptake, % Inhibition @ 10 uM (SEM)
[10] = bath application, listed as N,N'-di(5-acenaphthyl)guanidine, Hydrobromide
[11] = Rattus norvegicus, read-out: inhibition of glutamate release
[12] = Rattus norvegicus, read-out: relative level of glutamate release
[13] = Rattus norvegicus; read-out: Inhibition of 45Ca Uptake, IC50

For `Br.N=C(Nc1ccc2c3c(cccc13)CC2)Nc1ccc2c3c(cccc13)CC2` [N,N'-Bis(5-acenaphthyl)guanidine, N,N'-Bis (5-Acenaphthyl)Guanidine Hydrobromide], the “inhibition of Ca2+-dependent [3H]glutamate release (FIG. 3)” value ([1]; 0, 1, 3, 10 uM; K+ depolarization) was “potent inhibitor of glutamate release”, the “selectivity between persistent and transient component of Ca2+-dependent glutamate release” value ([1]; 3-10 uM) was “blocks the persistent component of Ca^2+ -dependent glutamate release more than the initial transient component” and the inhibition at 10 µM [1, 7] was 92%. For the same molecule, the IC50 [1, 8] was 3 µM, the activity at 10 µM ([2]; Rattus norvegicus, read-out: % Uptake vs. Control) was 43% and the inhibition at 10 µM [2, 9] was 46%. The IC50 ([2]; Rattus norvegicus, read-out: Inhibition of 45Ca Uptake, IC50) was 10.7 ± 3 µM, the “block of inward sodium currents, average” value ([3]; 30 uM, pressure ejection, N=5 cells) was 40% and the “inhibition of inward sodium current in the cell shown (FIG. 7)” value ([3]; 30 uM, single cell of FIG. 7) was 49%. The “reversal of sodium current block” value ([3]; following washout) was “partially reversed following washout”, the “inhibition of N-type calcium channel current” value ([4]; 5 uM) was “about 40%” and the “inhibition of N-type calcium channel current” value ([4]; 20 uM) was “inhibited nearly all of the current”. For the same molecule, the “reversal of N-type current inhibition” value ([4]; in about 6 minutes) was “Most of the inhibition was reversed”, the inhibition at 20 µM ([5]; Rattus norvegicus, bath application, read-out: reduction of field EPSP amplitude) was 80 to 90% and the inhibition at 20 µM ([5]; Rattus norvegicus, bath application, read-out: reduction of population spike amplitude) was 80 to 90%. The “effect on field EPSP” value [5, 10] was “reversibly blocked; also recorded: almost completely eliminated the field EPSP”, the “effect on population spikes” value [5, 10] was “completely eliminated population spikes; also recorded: reversibly blocked these population spikes” and the reversibility of effect ([5]; listed as N,N'-di(5-acenaphthyl)guanidine, Hydrobromide) was “completely reversible following washout; also recorded: fully reversible following washout; also recorded: fully recovered following washout”.
For `N=C(NC12CC3CC(CC(C3)C1)C2)NC12CC3CC(CC(C3)C1)C2` [N,N'-di-(adamantan-1-yl)guanidine], the “concentration dependence of 3H-glutamate release (FIG. 2)” value ([1]; 0, 10, 30, 100 uM; 2.1 second K+ depolarizing pulse) was “decreasing release of glutamate from synaptosomes”, the inhibition at 10 µM [1, 7] was 49% and the inhibition at 30 µM [1, 11] was 55%. The activity at 30 µM [1, 12] was 45%, the activity at 100 µM [1, 12] was 13% and the inhibition at 10 µM [2, 9] was 25%. It also gave an IC50 ([2]; Rattus norvegicus; FIG. 6 curve fits; read-out: IC50, inhibition of potassium-stimulated Ca uptake of synaptosomes (FIG. 6)) of 6.6 µM, an IC50 [2, 13] of 25 ± 9 µM and an IC50 (sigma receptor) of 16.5 nM.
Work on `N=C(NC1C2CC3CC(C2)CC1C3)NC1C2CC3CC(C2)CC1C3` (stereo not drawn) [N,N'-di-(adamantan-2-yl)guanidine, N,N'-(Adamantan-2-yl)guanidine Hydrochloride] yielded an inhibition at 10 µM [1, 7] of 60%, an inhibition at 30 µM [1, 11] of 60% and an activity at 30 µM [1, 12] of 40%. The activity at 100 µM [1, 12] was 20%, the inhibition at 10 µM [2, 9] was 35% and the IC50 [2, 13] was 16.1 ± 10 µM. For the same molecule, the IC50 (sigma receptor) was 92.7 nM and the “inhibition of veratridine-stimulated glutamate release (FIG. 5)” value [6] was “inhibition of glutamate release in a dose dependent manner”.
`N=C(Nc1ccc(F)c2ccccc12)Nc1ccc2c3c(cccc13)CC2` [N-(3- and 5-Acenaphthyl)-N'-(4-Fluoronaphthyl)-Guanidine.HCl] was tested, and the inhibition at 10 µM [1, 7] was 85%, the IC50 [1, 8] was less than 5 µM and the inhibition at 10 µM [2, 9] was 47%.
Work on `N=C(Nc1ccc(O)c2ccccc12)Nc1ccc2c3c(cccc13)CC2` [N-(5-acenaphthyl)-N'-(4-hydroxynaphthyl)guanidine] yielded an inhibition at 10 µM [1, 7] of 25% and an inhibition at 10 µM [2, 9] of 35%.
For `N=C(Nc1ccc2c3c(cccc13)CC2)NC1C2CC3CC(C2)CC1C3` (stereo not drawn) [N-(Adamantan-2-yl)-N'-(5-acenaphthyl)guanidine], the inhibition at 10 µM [1, 7] was 63%, the IC50 ([1]; Rattus norvegicus; read-out: Inhibition of Glutamate Release (Persistent Component), IC50) was 5 µM and the inhibition at 10 µM [2, 9] was 69%. The IC50 [2, 13] was 4.8 µM.
In the case of `Nc1ncnc2c1ncn2[C@@H]1O[C@H](CO)[C@@H](O)[C@H]1O` [adenosine, reference compound], the inhibition at 1000 µM ([5]; Rattus norvegicus, 1 mM, bath application, read-out: reduction of field EPSP amplitude) is reported as 90%, the “effect on field EPSP” value ([5]; bath application) is reported as “almost completely eliminated field EPSP's” and the “effect on population spikes” value ([5]; bath application) is reported as “totally blocked”. For the same molecule, the reversibility of effect [5] was “fully reversible following washout”.

Source: US5686495A, “Substituted hydrazinedicarboximidamides and methods of use thereof” (Cambridge NeuroScience, Inc., priority 1995, dated 1997)
